The assay has as its target T1, chimeric human RORγ-Gal4 receptor (Homo sapiens, UniProt P51449).
T1 sequence (P51449 269-508 limits assumed): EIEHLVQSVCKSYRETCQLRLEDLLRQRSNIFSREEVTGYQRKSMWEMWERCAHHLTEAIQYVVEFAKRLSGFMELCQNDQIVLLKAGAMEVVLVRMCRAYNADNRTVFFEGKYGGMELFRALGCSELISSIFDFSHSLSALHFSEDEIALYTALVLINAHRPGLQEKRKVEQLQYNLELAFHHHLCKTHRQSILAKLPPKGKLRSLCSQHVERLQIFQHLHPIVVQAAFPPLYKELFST
As to the kind of experiment: transient transactivation assay (RORγ-Gal4 luciferase reporter). It is filed as cell-based. For orientation: Reporter assays use an easily measured gene product as a stand-in for the process of interest.

Setting [1] is: Cos-7 cells transfected with RORγ-Gal4 and 5Gal4 pGL3 TK Luc reporter, overnight incubation, T0901317 at 10^-5 M as reference, read-out: IC50.

Molecules are shown by their SMILES. Read-outs that look alike come from different tables or passages of the source.

As a reminder, the IC50 is the concentration that inhibits the measured activity by half. As to `Cc1cc(C(F)(F)F)cc2c1cc(C(=O)c1c(Cl)ccc(CO)c1Cl)n2C` [Example AR, (2,6-dichloro-3-(hydroxymethyl)phenyl)(1,4-dimethyl-6-(trifluoromethyl)-1H-indol-2-yl)methanone], the IC50 under setting [1] lay in the range of 1000 to 10000 nM.

The compound `Cc1cc(C#N)cc2c1cc(Cc1c(Cl)ccc(CN3CCOCC3=O)c1Cl)n2C` [Example AU, 2-(2,6-dichloro-3-((3-oxomorpholino)methyl)benzyl)-1,4-dimethyl-1H-indole-6-carbonitrile] yielded an IC50 of 100 to 500 nM. Consider `CCOC(=O)CN1CCN(C(=O)c2ccc(Cl)c(Cc3cc4c(C)cc(C(F)(F)F)cc4n3C)c2Cl)CC1` [Example AV, ethyl 2-(4-(2,4-dichloro-3-((1,4-dimethyl-6-(trifluoromethyl)-1H-indol-2-yl)methyl)benzoyl)piperazin-1-yl)acetate], for which the IC50 under setting [1] fell in the range of 100 to 500 nM. On the same count and under the same terms, next, `Cc1cc(Br)cc2c1cc(Cc1c(Cl)ccc(C(=O)N3CCOCC3)c1Cl)n2C` [Example AX, (3-((6-bromo-1,4-dimethyl-1H-indol-2-yl)methyl)-2,4-dichlorophenyl)(morpholino)methanone]: less than 100 nM; `Cc1cc(N2CCOCC2)cc2c1cc(Cc1c(Cl)ccc(C(=O)N3CCOCC3)c1Cl)n2C` [Example AY, (2,4-dichloro-3-((1,4-dimethyl-6-morpholino-1H-indol-2-yl)methyl)phenyl)(morpholino)methanone]: less than 100 nM. In the case of `Cc1cc(C(F)(F)F)cc2c1cc(Cc1c(Cl)ccc(C(=O)N3CCC(C(=O)O)C(F)(F)C3)c1Cl)n2C` (stereo not drawn) [Example AZ, 1-(2,4-dichloro-3-((1,4-dimethyl-6-(trifluoromethyl)-1H-indol-2-yl)methyl)benzoyl)-3,3-difluoropiperidine-4-carboxylic acid], the IC50 under setting [1] was less than 100 nM. Same read-out and setting: the result for `Cc1cc(C(F)(F)F)cc2c1cc(Cc1c(Cl)ccc(C(=O)N3CCC(C(=O)O)C(C)C3)c1Cl)n2C` (stereo not drawn) [Example B-1, 1-(2,4-dichloro-3-((1,4-dimethyl-6-(trifluoromethyl)-1H-indol-2-yl)methyl)benzoyl)-3-methylpiperidine-4-carboxylic acid] reads less than 100 nM; that for `Cc1cc(C(F)(F)F)cc2c1cc(Cc1c(Cl)ccc(C(=O)N3CCC(OCC(=O)O)CC3)c1Cl)n2C` [Example B-2], less than 100 nM. Same read-out and setting: the result for `Cc1cc(C(F)(F)F)cc2c1cc(Cc1c(Cl)ccc(C(=O)N3CCC(C(=O)O)C3)c1Cl)n2C` (stereo not drawn) [Example B-3] reads 100 to 500 nM; that for `Cc1cc(C(F)(F)F)cc2c1cc(Cc1c(Cl)ccc(C(=O)N3CC(C)(C(=O)O)C3)c1Cl)n2C` [Example B-5], 100 to 500 nM; that for `Cc1cc(C(F)(F)F)cc2c1cc(Cc1c(Cl)ccc(C(=O)N3CCC(CC(=O)O)C3)c1Cl)n2C` (stereo not drawn) [Example B-6], less than 100 nM.

Take `Cc1cc(C(F)(F)F)cc2c1cc(Cc1c(Cl)ccc(C(=O)N3CCC(CC(=O)O)CC3)c1Cl)n2C` [Example B-7]: the IC50 under setting [1] was less than 100 nM.

`Cc1cc(C(F)(F)F)cc2c1cc(Cc1c(Cl)ccc(C(=O)N3C[C@@H]4C(C(=O)O)[C@@H]4C3)c1Cl)n2C` (stereo partly drawn) [Example B-8]: the IC50 under setting [1] was less than 100 nM. Same read-out and setting: the result for `Cc1cc(C(F)(F)F)cc2c1cc(Cc1c(Cl)ccc(C(=O)N3CC(CC(=O)O)C3)c1Cl)n2C` [Example B-9] reads less than 100 nM; that for `Cc1cc(C(F)(F)F)cc2c1cc(Cc1c(Cl)ccc(C(=O)N3CCC(O)C(C(=O)O)C3)c1Cl)n2C` (stereo not drawn) [Example B-10], 1000 to 10000 nM. `Cc1cc(C(F)(F)F)cc2c1cc(Cc1c(Cl)ccc(C(=O)N3CCCC(C(=O)O)C3)c1Cl)n2C` (stereo not drawn) [Example B-11]: the IC50 under setting [1] lay in the range of 100 to 500 nM. On the same count and under the same terms, the result for `Cc1cc(C(F)(F)F)cc2c1cc(Cc1c(Cl)ccc(C(=O)N3CCC(C)(C(=O)O)CC3)c1Cl)n2C` [Example B-13] reads 100 to 500 nM. Regarding `Cc1cc(C(F)(F)F)cc2c1cc(Cc1c(Cl)ccc(C(=O)N3CCC(F)(C(=O)O)CC3)c1Cl)n2C` [Example B-14], the IC50 under setting [1] lay within 100 to 500 nM. The same measure, in the same setting: next, `COC[C@@H]1CN(C(=O)c2ccc(Cl)c(Cc3cc4c(C)cc(C(F)(F)F)cc4n3C)c2Cl)C[C@H]1C(=O)O` [Example B-15]: 1000 to 10000 nM. On the same count and under the same terms, next, `Cc1cc(C(F)(F)F)cc2c1cc(Cc1c(Cl)ccc(C(=O)N3C[C@@]4(C(=O)O)CC[C@@H]3C4)c1Cl)n2C` [Example B-16]: 100 to 500 nM; `Cc1cc(C(F)(F)F)cc2c1cc(Cc1c(Cl)ccc(C(=O)N3CC4(CC(CC(=O)O)C4)C3)c1Cl)n2C` [Example B-17]: less than 100 nM. On to `Cc1cc(C(F)(F)F)cc2c1cc(Cc1c(Cl)ccc(C(=O)N3CC4(CC(C(=O)O)C4)C3)c1Cl)n2C` [Example B-18], for which, under setting [1], the IC50 is less than 100 nM. Same read-out and setting: next, `Cc1cc(C(F)(F)F)cc2c1cc(Cc1c(Cl)ccc(C(=O)N3CCC(C(C)C(=O)O)CC3)c1Cl)n2C` (stereo not drawn) [Example B-19]: less than 100 nM; `Cc1cc(C(F)(F)F)cc2c1cc(Cc1c(Cl)ccc(C(=O)N3CCC(C(O)C(=O)O)CC3)c1Cl)n2C` (stereo not drawn) [Example B-20]: less than 100 nM; `Cc1cc(C(F)(F)F)cc2c1cc(Cc1c(Cl)ccc(C(=O)N3CCC(CC(=O)O)C(C)C3)c1Cl)n2C` (stereo not drawn) [Example B-21]: less than 100 nM.

Consider `Cc1cc(C(F)(F)F)cc2c1cc(Cc1c(Cl)ncc(C(=O)N3CCC(CC(=O)O)CC3)c1Cl)n2C` [Example B-22], for which the IC50 under setting [1] is less than 100 nM.

Consider `Cc1cc(C(F)(F)F)cc2c1cc(Cc1c(Cl)ccc(C(=O)N3CCC(C(C)(C)C(=O)O)CC3)c1Cl)n2C` [Example B-23], for which the IC50 under setting [1] was less than 100 nM.

With `Cc1cc(C(F)(F)F)cc2c1cc(Cc1c(Cl)ccc(C(=O)N3CCC(CCC(=O)O)CC3)c1Cl)n2C` [Example B-24], the half-inhibitory concentration (IC50) under setting [1] was less than 100 nM. Same read-out and setting: the result for `Cc1cc(C(F)(F)F)cc2c1cc(Cc1c(Cl)ccc(C(=O)N[C@H]3CC[C@@H](C(=O)O)CC3)c1Cl)n2C` [Example B-25] reads less than 100 nM.

In the case of `Cc1cc(C(F)(F)F)cc2c1cc(Cc1c(Cl)ccc(C(=O)N3CC[C@H](C(=O)O)[C@@H](C)C3)c1Cl)n2C` [Example B-26], the IC50 under setting [1] is less than 100 nM. Still for that read-out and setting: the result for `Cc1cc(C(F)(F)F)cc2c1cc(Cc1c(Cl)ccc(C(=O)N3CCC(C(=O)O)C(F)C3)c1Cl)n2C` (stereo not drawn) [Example BA, 1-(2,4-dichloro-3-((1,4-dimethyl-6-(trifluoromethyl)-1H-indol-2-yl)methyl)benzoyl)-3-fluoropiperidine-4-carboxylic acid] reads less than 100 nM.

As to `Cc1ncc(C(=O)N2CCOCC2)c(C)c1Cc1cc2c(C)cc(C(F)(F)F)cc2n1C` [Example BB, (5-((1,4-dimethyl-6-(trifluoromethyl)-1H-indol-2-yl)methyl)-4,6-dimethylpyridin-3-yl)(morpholino)methanone], the IC50 under setting [1] was 500 to 1000 nM. Still for that read-out and setting: the result for `Cc1ncc(C(=O)N2CCC(CC(=O)O)CC2)c(C)c1Cc1cc2c(C)cc(C(F)(F)F)cc2n1C` [Example BC, 2-(1-(5-((1,4-dimethyl-6-(trifluoromethyl)-1H-indol-2-yl)methyl)-4,6-dimethylnicotinoyl)piperidin-4-yl)acetic acid] reads 100 to 500 nM; that for `Cc1ncc(C(=O)N2CCC(C3COC3)CC2)c(C)c1C(=O)c1cc2c(C)cc(C#N)cc2n1C` [Example BD, 2-[2,4-dimethyl-5-[4-(oxetan-3-yl)piperidine-1-carbonyl]pyridine-3-carbonyl]-1,4-dimethyl-indole-6-carbonitrile], 1000 to 10000 nM; that for `Cc1cc(C#N)cc2c1cc(Cc1c(Cl)cnc(C(=O)N3CCC(CC(=O)O)CC3)c1Cl)n2C` [Example BG, 2-[1-[3,5-dichloro-4-[(6-cyano-1,4-dimethyl-indol-2-yl)methyl]pyridine-2-carbonyl]-4-piperidyl]acetic acid], 500 to 1000 nM. On the same count and under the same terms, the result for `Cc1cc(C(F)(F)F)cc2c1cc(Cc1c(Cl)ncc(C(=O)N3CCOCC3)c1Cl)n2C` [Example BH, (4,6-dichloro-5-((1,4-dimethyl-6-(trifluoromethyl)-1H-indol-2-yl)methyl)pyridin-3-yl)(morpholino)methanone] reads less than 100 nM; that for `Cc1cc(C(F)(F)F)cc2c1cc(Cc1c(Cl)cn(CCC(=O)O)c(=O)c1Cl)n2C` [Example BI, 3-(3,5-dichloro-4-((1,4-dimethyl-6-(trifluoromethyl)-1H-indol-2-yl)methyl)-2-oxopyridin-1(2H)-yl)propanoic acid], 1000 to 10000 nM. The same measure, in the same setting: next, `Cc1cc(C(F)(F)F)cc2c1nc(Cc1c(Cl)ccc(C(=O)N3C[C@@H]4[C@H](C3)[C@H]4C(=O)O)c1Cl)n2C` [Example BL, (1R,5S,6r)-3-(2,4-dichloro-3-((1,4-dimethyl-6-(trifluoromethyl)-1H-benzo[d]imidazol-2-yl)methyl)benzoyl)-3-azabicyclo[3.1.0]hexane-6-carboxylic acid]: 1000 to 10000 nM; `Cc1cc(C)c2nc(Cc3c(Cl)ccc(C(=O)N4CCOCC4)c3Cl)n(C)c2c1` [Example BO, (2,4-dichloro-3-((1,4,6-trimethyl-1H-benzo[d]imidazol-2-yl)methyl)phenyl)(morpholino)methanone]: 500 to 1000 nM. For `Cc1ccc(C(=O)N2CCOCC2)c(C)c1Cc1nc2c(C)cc(Br)cc2n1C` [Example BR, (3-((6-bromo-1,4-dimethyl-1H-benzo[d]imidazol-2-yl)methyl)-2,4-dimethylphenyl)(morpholino)methanone], the IC50 under setting [1] is 100 to 500 nM. The same measure, in the same setting: next, `Cc1cc(C(F)(F)F)cc2c1nc(C(=O)c1c(Cl)ccc(C(=O)N3CCOCC3)c1Cl)n2C` [Example BS, (2,4-dichloro-3-(1,4-dimethyl-6-(trifluoromethyl)-1H-benzo[d]imidazole-2-carbonyl)phenyl)(morpholino)methanone]: 100 to 500 nM. Same read-out and setting: the result for `Cc1cc(C(N)=O)cc2c1nc(C(=O)c1c(Cl)ccc(C(=O)N3CCOCC3)c1Cl)n2C` [Example BT, 2-(2,6-dichloro-3-(morpholine-4-carbonyl)benzoyl)-1,4-dimethyl-1H-benzo[d]imidazole-6-carboxamide] reads 1000 to 10000 nM.

Values taken from patent US10106501B2, “Nuclear receptor modulators” (AbbVie Inc., priority 2015, dated 2018).
